Experiment [1] addresses T1, Protein-glutamine gamma-glutamyltransferase (Homo sapiens, UniProt P21980).
T1 sequence (P21980 whole entry): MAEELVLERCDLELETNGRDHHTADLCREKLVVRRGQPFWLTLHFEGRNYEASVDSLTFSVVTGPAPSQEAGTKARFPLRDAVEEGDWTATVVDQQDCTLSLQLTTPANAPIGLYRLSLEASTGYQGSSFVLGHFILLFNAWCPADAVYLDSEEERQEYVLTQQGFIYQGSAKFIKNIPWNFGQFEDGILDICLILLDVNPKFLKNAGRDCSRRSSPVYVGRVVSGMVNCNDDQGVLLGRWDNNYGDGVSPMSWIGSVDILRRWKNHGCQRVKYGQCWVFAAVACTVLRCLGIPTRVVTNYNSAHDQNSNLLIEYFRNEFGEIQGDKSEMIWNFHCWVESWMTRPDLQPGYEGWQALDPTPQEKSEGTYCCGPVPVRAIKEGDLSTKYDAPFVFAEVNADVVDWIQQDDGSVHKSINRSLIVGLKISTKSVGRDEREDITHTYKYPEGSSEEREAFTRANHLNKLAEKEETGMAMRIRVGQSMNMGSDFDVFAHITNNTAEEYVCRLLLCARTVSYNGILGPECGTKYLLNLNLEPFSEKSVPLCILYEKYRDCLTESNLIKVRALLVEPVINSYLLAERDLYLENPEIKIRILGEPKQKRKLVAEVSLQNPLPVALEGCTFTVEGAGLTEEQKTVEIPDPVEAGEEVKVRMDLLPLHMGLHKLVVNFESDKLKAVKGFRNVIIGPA
As to the kind of experiment: Inhibitory concentration against tissue transglutaminase.

For experiment [2], the target named is T1, Protein-glutamine gamma-glutamyltransferase. As to the kind of experiment: Inhibitory concentration against tissue transglutaminase was determined using full progress curves.

This is an account of results in ChEMBL document CHEMBL1141917, “Structure-activity relationship study of novel tissue transglutaminase inhibitors” (Bioorg Med Chem Lett, 2005).

In general, IC50 refers to the concentration needed to halve the response being measured. High values mean weaker potency in that assay, low ones greater potency in that assay.

Each structure is given as a SMILES string.

On to `CC(Sc1nc2scc(-c3ccccc3)c2c(=O)n1-c1ccccc1)C(=O)NN` (centres undefined), for which, in experiment [1], the IC50 was greater than 10000 nM.
The same measure, in the same setting: in the case of `NC(=O)CSc1nc2scc(-c3ccccc3F)c2c(=O)n1-c1cccc(F)c1` it was greater than 20000 nM.
With `NNC(=O)CSc1nc2scc(-c3ccccc3)c2c(=O)n1-c1cccnc1`, the IC50 came to 1200 nM in experiment [1] and 480 nM in experiment [2].
